In patent US20100247461A1, “ANTI-INFLAMMATORY COMPLEXES” (Signum Biosciences, Inc., priority 2009, published 2010):
Like-named read-outs stand apart in the source and are kept apart here.

Columns and labels:
[1] = test system: TPA-treated mouse ears (edema, ear thickness); assay: TPA mouse ear model of inflammation - edema inhibition; type: in vivo
Description: In brief, mice were sedated and their ears were treated with 1.2 μg/20 uL TPA (i.e., tetradecanoylphorbol-13-acetate). After 5 minutes, we dosed these TPA-treated ears with a single 8 μg/20 μL dose, a 2 μg/20 μL dose, or both doses, of provided complexes. After 24 hours, the mice were sacrificed and edema was measured by taking micrometer readings of each ear. […] These values were corrected for the thickness of normal, non TPA-treated mouse ears of littermate controls.

[2] = test system: TPA-treated mouse ears (erythema, Δa* redness); assay: TPA mouse ear model of inflammation - erythema inhibition; type: in vivo; settings: topical, 24 hours
Description: The protocol for measuring erythema inhibition by provided complexes was developed in-house by utilizing the CR-400 chroma meter from Konica Minolta (2). This instrument was used to measure the Δa*redness value from 6 mm biopsy punches taken 24 hours post TPA/compound treatment as described in the edema inhibition section above. […] These values were corrected for the Δa* value of non TPA-treated mouse ears of littermate controls.

[3] = test system: MPO (myeloperoxidase), neutrophil marker; assay: TPA mouse ear model of inflammation - MPO inhibition (dermal neutrophil infiltration); type: in vivo
Description: Briefly, we homogenized 6mm biopsy punches taken from both compound-treated ears as well as TPA-treated and non-treated control groups. We quantitated the levels of MPO by a colorimetric reaction that was measured spectrophotometrically. The percent inhibition of neutrophil infiltration by each complex was determined by comparing the average MPO levels in the presence and absence of these compounds. The calculation for percent inhibition of MPO was determined similar to that as described for calculating the percent edema inhibition, see the Edema Inhibition protocol, supra.

[4] = test system: neutrophils; assay: Inhibition of oxidative burst from neutrophils (fMLP-induced superoxide release); type: cell-based; settings: reduction of superoxide formation, fMLP 0.2 μM, 0 to 100 μM compound; read-out: ED50 Respiratory Burst
Description: During inflammation, neutrophils produce and release superoxide ions, otherwise known as oxidative burst response, causing cytotoxicity. […] The superoxide release assay is based on published protocols (Goldstein et al. (1975). J. Clin. Invest. 56(5): 1155-63). Briefly, cells were pre-incubated for 10 min at 37° C. with a mixture of cytochrome c (75 μM final concentration), cytochalasin B (5 μg/ml) with or without superoxide dismutase (SOD) (10 μg/ml) and with or without AFC, AFC-Calcium complex, and AFC-Strontium complex (ranging from 0 to 100 μM). To initiate O2^− release, fMLP (0.2 μM) was added the cells are incubated for 10 min at 37° C. Samples were then placed on ice for 5 min and subsequently centrifuged at 3,000 rpm at 4° C. The supernatant was then analyzed by spectrophotometric measurement at 550 and 556.5 nm. The ED50 values for the reduction of superoxide formation, obtained with AFC, AFC-Calcium complex, and AFC-Strontium complex are depicted in Table 2.

[5] = test system: Propionibacterium acnes (strain ATCC 6919); assay: Inhibition of Propionibacterium acnes growth; type: cell-based
Description: The assay for the inhibition of growth of Propionibacterium acnes bacteria is described elsewhere (Nakatsuji et al., J Invest Dermatol, 2009, 129: 2480-2488). In brief, the strain ATCC 6919 of P. acnes (American Type Culture Collection, Manassas, Va.) was cultured on Brucella agar (R01254, Remel, Lenexa, Kans.) supplemented with 5% (v/v) defibrinated sheep blood, vitamin K (5 mg/ml, Remel, Lenexa, Kans.), and hemin (50 mg/ml, Remel, Lenexa, Kans.), under an anaerobic condition using Gas-Pak (BD, Sparks, Md.) at 37° C. A single colony was inoculated in Reinforced Clostridium Medium (Oxford, Hampshire, England) and cultured at 37° C. under the anaerobic condition. Each of the inventive complexes—AFC-Sr, AFC-Ag and AFC-Zn as well as AFC were dissolved in 100% (v/v) DMSO. Samples of each inventive complex, AFC and a solution of benzoyl peroxide (“BPO”) were then each incubated with an inoculum of P. acnes at a concentration of 1×10^6 CFU per mL in Reinforced Clostridium Medium in a 96-well microplate (100 μL per well) under anaerobic conditions for 72 hours. Samples of each were tested at final concentrations per well of 0.25 μg/mL, 0.5 μg/mL, 1.0 μg/mL, 1.95 μg/mL, 3.9 μg/mL, 7.8 μg/mL, 15.625 μg/mL, 31.25 μg/mL, 62.5 μg/mL, 125 μg/mL, 250μg/mL, and 500 μg/mL. A control well received only 5% (v /v) of DMSO in place of a sample of an inventive complex. After 72 hours incubation under anaerobic conditions, the P. acnes cultures in the 96-well microplate were mixed well and then absorbance readings at 600 nm were taken to determine bacterial growth. […] Growth curves of P. acnes determined for BPO, AFC, AFC-Sr, AFC-Ag and AFC-Zn are depicted in FIG. 3.

[6] = test system: MPO activity (neutrophil infiltration) in P. acnes-injected ear; assay: P. acnes-induced mouse ear model of inflammation - MPO endpoint; type: in vivo; settings: dose of 0.4 mg/20 μL
Description: The methods for a model of P. acnes-inflammation are described elsewhere (Nakatsuji et al., J Invest Dermatol, 2008, 128: 2451-2457).
The protocol for inducing inflammation using P. acnes bacterial challenge on the mouse ear was slightly modified from the method described previously (Natatsuji et al., 2008). Briefly, Swiss Webster (ICR, 6-8 weeks old) mouse ears were injected with living P. acnes culture intradermally. An amount of 20 μl aliquots of living P. acnes (ATCC 6919, 3×10^6 CFU) suspended in PBS was intradermally injected in the central portion of the ear. As a control, 20 μl of PBS was injected into control animals.
To assay for inhibition of dermal neutrophil infiltration by AFC complexes, a standard method was used (see Bradley et al., J Invest Dermatol, 1982,78: 206-209; Young et al., J Invest Dermatol, 1983, 80: 48-52; De Young et al, Agents Actions, 1989, 26: 335-41; and Rao et al., Inflammation, 1993, 17: 723-41). Briefly, 6mm biopsy punches taken from both compound-treated ears as well as non-treated control ears were homogenized in 400 μl of 0.5% hexadecyltrimethylammonium bromide in 50 mM potassium phosphate buffer (pH 6.0) using the Fast Prep 24 (MP Biomedicals, Solon, Ohio). Supernatants were assayed for MPO activity using a model EL 340 96-well plate reader (BioTek Instruments, Winooski, Vt.). The percent inhibition of neutrophil infiltration by each AFC complex was determined by comparing the average MPO levels in the presence and absence of these compounds. The percent inhibition of MPO was determined by taking the average MPO activity of compound-treated ears and dividing it by the average MPO activity of 12 ears that only received the P. acnes challenge and subtracting that value from 100%. These values were corrected for the MPO activity of normal, non P. acnes-treated mouse ears of littermate controls. Summary of MPO activity ranges determined from an MPO activity assay for dexamethasone (administered at a dose of 1.6 mg/20 μL), clobetasol (administered at a dose of 0.1 mg/20 μL), salicylic acid (administered at a dose of 0.4 mg/20 μL), AFC (administered at a dose of 0.4 mg/20 μL), AFC-Strontium complex (administered at a dose of 0.4 mg/20 μL) and SFC-disodium are presented in Table 4. “+” indicates a range of 0-20%, “++” indicates a range of 20-40%, and “+++” indicates >40% inhibition.

[7] = test system: TPA-treated mouse ears (edema, ear thickness); assay: TPA mouse ear model of inflammation - edema inhibition; type: in vivo; settings: topical, 24 hours
[8] = complex and its solutions; compared with ordinary silver salts of carboxylic acids

Structure (SMILES) | ED50 for edema inhibition ([1]; TPA-treated mouse ear, topical) | decrease of edema compared with another complex or AFC alone ([1]; mouse ear inflammation assay) | % Erythema Inhibition in the Mouse Ear Inflammation Assay (4% concentration) [2] | ED50 in the MPO assay ([3]; TPA-treated mouse ear, several concentrations, inhibitory activity curves) | ED50 value for inhibiting neutrophil infiltration ([3]; TPA-treated mouse ear, topical) | % MPO Inhibition in the Mouse Ear Inflammation Assay (4% concentration) ([3]; TPA-treated mouse ear, topical, 4% concentration, 24 hours) | MPO inhibition compared with another complex or AFC alone ([3]; mouse ear inflammation assay) | fold lower ED50 value for inhibiting neutrophil infiltration than the AFC oil ([3]; versus AFC oil) | EC50 [4] | IC50 (inhibition of P. acnes growth) ([5]; 72 hours, anaerobic, absorbance 600 nm, 1×10^6 CFU per mL) | MPO % Inhibition [6] | % Edema Inhibition in the Mouse Ear Inflammation Assay (4% concentration) [7] | IC50 (inhibition of P. acnes growth) [5] | light and air stability [8]
CC(=O)N[C@@H](CSC/C=C(\C)CC/C=C(\C)CCC=C(C)C)C(=O)O [AFC-strontium complex, Strontium (R)-2-acetamido-3-((2E,6E)-3,7,11-trimethyldodeca-2,6,10-trienylthio)propanoate] | 21700 µM | more effective at decreasing edema than the calcium complex | +++ (“+++” indicates >40% inhibition of erythema) | 315 μg/ear | 5020 µM | +++ (“+++” indicates >80% inhibition of MPO) | improved MPO inhibition than the calcium complex | ~8 fold | 35.6 µM | 12.6 µg/mL | +++ (“+++” indicates >40% inhibition) | +++ (“+++” indicates >50% inhibition of edema) |  | 
CC(=O)N[C@@H](CSC/C=C(\C)CC/C=C(\C)CCC=C(C)C)C(=O)[O-].[Ag+] [AFC-Silver complex, Silver (R)-2-acetamido-3-((2E,6E)-3,7,11-trimethyldodeca-2,6,10-trienylthio)propanoate] |  |  |  |  |  |  |  |  |  |  |  |  | 16.9 µg/mL | enhanced light and air stability
